Read-outs that look alike come from different tables or passages of the source.
Key:
E1-STS [1] = molecular target: T1, E1-STS (Homo sapiens, UniProt P08842); conditions: cited from earlier work
T1 sequence (P08842 22-583): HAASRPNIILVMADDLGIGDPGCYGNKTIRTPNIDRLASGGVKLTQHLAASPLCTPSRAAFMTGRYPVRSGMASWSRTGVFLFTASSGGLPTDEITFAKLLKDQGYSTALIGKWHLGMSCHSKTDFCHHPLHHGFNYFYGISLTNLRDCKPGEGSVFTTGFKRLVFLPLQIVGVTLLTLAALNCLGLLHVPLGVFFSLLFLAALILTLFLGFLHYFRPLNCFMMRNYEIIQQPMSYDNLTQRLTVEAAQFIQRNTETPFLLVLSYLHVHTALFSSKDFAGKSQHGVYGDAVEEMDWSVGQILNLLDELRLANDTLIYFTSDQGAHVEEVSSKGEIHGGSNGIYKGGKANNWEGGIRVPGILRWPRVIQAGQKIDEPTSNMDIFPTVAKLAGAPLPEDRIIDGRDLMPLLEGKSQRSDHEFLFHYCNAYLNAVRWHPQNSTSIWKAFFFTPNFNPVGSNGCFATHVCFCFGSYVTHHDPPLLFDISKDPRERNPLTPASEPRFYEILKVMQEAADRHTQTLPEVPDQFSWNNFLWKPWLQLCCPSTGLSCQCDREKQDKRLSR

E1-STS [2] = molecular target: T1, E1-STS; set-up: E1-STS activity in intact MCF-7 cells; endogenous in cells; host or cells: MCF-7 cells (intact); conditions: intact MCF-7 cells, at 0.1 nM; cited from earlier work
[3] = rats; cited from earlier work
[4] = molecular target: T2, dehydroepiandrosterone sulphatase (DHEA-STS) (Homo sapiens, UniProt P08842); conditions: cited from earlier work
T2 sequence (P08842 22-583): T1 sequence (P08842 22-583)

[5] = tested on: tumours derived from MCF-7AROM cells; experiment: Study 2: growth of tumours derived from MCF-7AROM cells in nude mice; assay type: in vivo; conditions: Study 2, A4 plus E2S stimulated; oral administration; letrozole 0.1 mg/kg; FIGS. 9-11
Experimental: (§1) Ovariectomised, athymic female MF-1 nude mice (nu/nu) (age 6-8 weeks) were obtained from Harlan Olac. Twenty four hours before the inoculation of MCF-7 cells animals were injected s.c. with androstenedione (A4) or estradiol sulfate (E2S). On the day of inoculation MCF-7 cells (50 μl in Matrigel) were injected s.c. into the flanks of mice. After cell inoculation mice were injected with A4 and E2S and received another injection of these steroids 24 h later. Mice then received A4 plus E2S 3 times per week until the end of the study. When tumours had reached approximately 80 mm^3 dosing was initiated with compounds being administered orally (100 μl; vehicle 10% THF: 90% propylene glycol). Tumour measurements and the weight of animals were recorded weekly.
(§2) MCF-7 cells were routinely cultured in RPMI with 10% FCS. The cDNAs for either the aromatase or STS were cloned into the pCl-Neo vector which contains the neomycin resistant gene and transfected into MCF-7 cells. Stable clones were selected using G418 and cell lines established and evaluated for enzyme expression and activity.
(§3) This study was similar to the previous one with the exception that MCF-7STS or MCF-7AROM cells (1×10^7) were inoculated into different flanks of the same animals. The doses of A4 and E2S were increased to 100 μg for each compound.

[6] = tested on: MCF-7STS+MCF-7AROM tumours; experiment: Study 1: MCF-7STS+MCF-7AROM tumour growth in nude mice; assay type: in vivo; conditions: Study 1, A4 plus E2S stimulated; oral; letrozole 0.1 mg/kg, STX213 10 mg/kg p.o. 5/7 per week; FIG. 6
Experimental: as §1, §2
(§4) For this study MCF-7 cells over-expressing aromatase or STS were mixed and inoculated (5×10^6 cells) in Matrigel into the flanks of nude mice. A similar number of MCF-7WT cells were inoculated into the other flank. […]

[7] = assay type: in vivo; conditions: for toxic effects (animal growth): Study 1, FIG. 7
Experimental: as §1
For this study MCF-7 cells over-expressing aromatase or STS were mixed and inoculated (5×10^6 cells) in Matrigel into the flanks of nude mice. A similar number of MCF-7WT cells were inoculated into the other flank. For this study growth of tumours was stimulated by s.c. injection of A4 (50 μg) and E2S (50 μg) in 50 μl vehicle.

[8] = tested on: tumours derived from MCF-7STS cells; experiment: Study 2: growth of tumours derived from MCF-7STS cells in nude mice; assay type: in vivo; conditions: Study 2, A4 plus E2S stimulated; oral administration; letrozole 0.1 mg/kg; FIGS. 9-11
Experimental: as §1, §2, §3

[9] = assay type: in vivo, mice
Experimental: as §1, §3

MCF-7WT tumours = experiment: Study 1: MCF-7WT tumour growth in nude mice; assay type: in vivo; conditions: Study 1, A4 plus E2S stimulated; oral; letrozole 0.1 mg/kg, STX213 10 mg/kg p.o. 5/7 per week; FIG. 6
Experimental: as §1, §2, §4

[10] = tested on: tumours derived from MCF 7STS cells; assay type: in vivo; conditions: initial experiments, nude mice, FIG. 5
STS = molecular target: T3, STS (Homo sapiens, UniProt P08842); experiment: Phase I trial: STS activity in peripheral and tumour tissues; assay type: in vivo; conditions: postmenopausal women with breast cancer
T3 construct: STS activity in peripheral and tumour tissues in postmenopausal women with breast cancer; from tissue; host or cells: peripheral and breast tumour tissues of patients
T3 sequence (P08842 22-583): T1 sequence (P08842 22-583)
Excerpt: (§5) In addition to the aromatase pathway for the synthesis of estrogens in postmenopausal women, the sulfatase route is also important of the formation of steroids with potent estrogenic properties. Steroid sulfatase (STS) is responsible for the hydrolysis of estrone sulfate (E1S) and dehydroepiandrosterone sulfate (DHEAS) to estrone (E1) and DHEA respectively, which can be reduced in the body to estradiol (E2) and androstenediol (Adiol), both of which have potent estrogenic properties (FIGS. 3 & 4; reviewed in Reed et al., Endocrine Reviews, 256:171-202, 2005).

[11] = Phase I trial: serum steroid levels; assay type: in vivo; conditions: postmenopausal women with breast cancer
Excerpt: The assay for the determination of androstenedione, testosterone, E1 and E2 was the gas chromatographic tandem mass spectroscopic method of Wang et al., (2005). Recombinant cell ultra-sensitive bioassay for measurements of estrogens in postmenopausal women J Clin Endocrinol Metab 90: 1407-1413, 2005.
as §5, with “2005). […] This provides evidence for an aromatase independent pathway.” for “2005).”

Compound	mode of E1-STS inhibition (inactivation) (E1-STS [1])	growth of tumours derived from MCF-7AROM cells [5]	growth of MCF-7STS+MCF-7AROM tumours [6]	toxic effects (animal growth) [7]	growth of tumours derived from MCF-7STS cells [8]	growth of MCF-7WT tumours (MCF-7WT tumours)	growth of tumours derived from MCF 7STS cells [10]	also measured
oestrone-3-N-sulphamate	weaker non-time-dependent inactivators	–	–	–	–	–	–	–
CC12CCC3c4ccc(OS(N)(=O)=O)cc4CCC3C1CCC2=O (stereo not shown) [EMATE, oestrone-3-sulphamate]	time- and concentration-dependent manner	–	–	–	–	–	–	inhibition of E1-STS activity (E1-STS [2]): more than 99%; effect on memory [3]: memory enhancing effect; inhibition of DHEA-STS [4]: also inhibits
N#Cc1ccc(C(c2ccc(C#N)cc2)n2cncn2)cc1 [letrozole, reference compound]	–	significant inhibition	some reduction of tumour growth	Neither STX213 nor letrozole appeared to have any toxic effects	did not affect the growth	some reduction of tumour growth	–	tolerability, effects on animal weight ([9]; mouse, in vivo): well tolerated with no effects on animal weight
CCCN1C(=O)CC2C3CCc4cc(OS(N)(=O)=O)ccc4C3CC[C@]2(C)C1=O (stereo partly shown) [STX213]	–	–	significantly reduced the growth	Neither STX213 nor letrozole appeared to have any toxic effects	–	significantly reduced the growth	could be inhibited	toxicity as shown by body weight ([7]; Study 1, at the dose tested, FIG. 7): devoid of any toxicity
NS(=O)(=O)Oc1ccc2c3c(c(=O)oc2c1)CCCCC3 [STX64]	–	significant inhibition	–	–	significant inhibition	–	could be inhibited	STS activity in peripheral and tumour tissues (STS): effectively blocked STS activity; levels of androstenedione [11]: reduced; levels of testosterone [11]: reduced; serum oestrogen concentrations [11]: reducing serum oestrogen concentrations; tolerability, effects on animal weight ([9]; Study 2, FIG. 12): well tolerated with no effects on animal weight
oestrone-3-S-sulphamate	weaker non-time-dependent inactivators	–	–	–	–	–	–	–
